Source: patent publication US20100168075A1, “Novel 2-Azetidinone Derivatives As Cholesterol Absorption Inhibitors For The Treatment Of Hyperlipidaemic Conditions” (ASTRAZENECA AB, priority 2005, published 2010)

Experiments:
[1] = system: ^14C-cholesterol absorption; assay: In vivo testing of cholesterol absorption inhibitors (A); conditions: Mus musculus, po; 0.2 μmol/kg, gavage, procedure A, C57BL/6 female mice
Protocol: In Vivo Testing of Cholesterol Absorption Inhibitors (A)
C57BL/6 female mice were maintained on regular chow diet and housed in individual cages to collect faeces. Mice were fasted for 3 hours and then gavaged with vehicle or compound. Half an hour later the mice were gavaged with radiolabelled cholesterol. Six hours after the ^14C-cholesterol gavage blood samples were taken via the tail and plasma prepared to determine how much cholesterol were absorbed. 24 hours after the gavage of ^14C-cholesterol the mice were bled and plasma were prepared for analysis. Faeces were collected for 24 hours to assess absorption efficiency.

Caco-2 cells = assay: Absorption in a Caco-2 cells model; type: in vitro ADME
Protocol: Absorption of the compounds of formula (I) was tested in a Caco-2 cells model (Gastroenterology 1989, 96, 736): […]

N[C@H](CCCCNC(=O)CNC(=O)COc1ccc([C@@H]2[C@@H](SCC(O)c3ccc(F)cc3)C(=O)N2c2ccc(F)cc2)cc1)C(=O)O (stereo partly drawn) [Example 10, N^6-(N-{[4-((2R,3R)-1-(4-fluorophenyl)-3-{[2-(4-fluorophenyl)-2-hydroxyethyl]thio}-4-oxoazetidin-2-yl)phenoxy]acetyl}glycyl)-D-lysine]
inhibition at 0.2 µmol/kg [1]: 38%

CC(=O)[O-].C[N+](C)(C)CCNC(=O)[C@@H](CC1CCCCC1)NC(=O)CNC(=O)COc1ccc([C@@H]2[C@@H](SCC(O)c3ccc(F)cc3)C(=O)N2c2ccc(F)cc2)cc1 (stereo partly drawn) [Example 17, N-{[4-((2R,3R)-1-(4-fluorophenyl)-3-{[(2R or $)-2-(4-fluorophenyl)-2-hydroxyethyl]thio}-4-oxoazetidin-2-yl)phenoxy]acetyl}glycyl-3-cyclohexyl-N-[2-(trimethylammonio)ethyl]-D-alaninamide acetate]
Caco value (Caco-2 cells): 0.61 ×10⁻⁶ cm/s
